Results taken from the NIST ThermoML archive (doi:10.1016/j.jct.2019.03.032).
± gives the expanded uncertainty stated by the source.

Settings: Metastable liquid, Gas chromatography

CC(C)CCCC(C)CCCC(C)CCCCC(C)CCCC(C)CCCC(C)C (centres undefined) [2,6,10,15,19,23-hexamethyltetracosane]
Settings | vapor or sublimation pressure [kPa]
298.15 K | 1.5e-09
310 K | 1.2e-08
320 K | 5.9e-08
330 K | 2.6e-07
340 K | 1e-06 ± 4e-07
350 K | 3.5e-06 ± 1.4e-06
360 K | 1.1e-05 ± 4e-06
370 K | 3.4e-05 ± 1.2e-05
380 K | 9.2e-05 ± 7e-06
390 K | 0.00024 ± 6e-05
400 K | 0.00057 ± 0.00015
410 K | 0.0013 ± 0.0002
420 K | 0.0028 ± 0.0006
430 K | 0.0059 ± 0.0011
440 K | 0.012 ± 0.002
450 K | 0.022 ± 0.004
460 K | 0.04 ± 0.005
470 K | 0.071 ± 0.009
480 K | 0.121 ± 0.015
490 K | 0.2 ± 0.021
500 K | 0.32 ± 0.032
510 K | 0.51 ± 0.046
520 K | 0.78 ± 0.065
530 K | 1.2 ± 0.095
540 K | 1.7 ± 0.13
550 K | 2.5 ± 0.19
560 K | 3.5 ± 0.27
570 K | 4.8 ± 0.37
580 K | 6.6 ± 0.51
590 K | 8.9 ± 0.69
600 K | 12 ± 0.93
686.4 K | 101.33 ± 10

CC(C)=CCC/C(C)=C/CC/C(C)=C/CC/C=C(\C)CC/C=C(\C)CCC=C(C)C
Settings | vapor or sublimation pressure [kPa]
298.15 K | 3.7e-10
310 K | 3.1e-09
320 K | 1.6e-08
330 K | 7.5e-08
340 K | 3.1e-07 ± 1.4e-07
350 K | 1.2e-06
360 K | 3.9e-06 ± 1.6e-06
370 K | 1.2e-05 ± 4e-06
380 K | 3.5e-05 ± 1.2e-05
390 K | 9.3e-05 ± 7e-06
400 K | 0.00023 ± 6e-05
410 K | 0.00055 ± 0.00015
420 K | 0.0012 ± 0.0002
430 K | 0.0026 ± 0.0004
440 K | 0.0053 ± 0.0009
450 K | 0.01 ± 0.002
460 K | 0.019 ± 0.002
470 K | 0.035 ± 0.005
480 K | 0.061 ± 0.007
490 K | 0.1 ± 0.011
500 K | 0.17 ± 0.017
510 K | 0.27 ± 0.025
520 K | 0.42 ± 0.036
530 K | 0.63 ± 0.052
540 K | 0.94 ± 0.073
550 K | 1.4 ± 0.11
560 K | 2 ± 0.15
570 K | 2.8 ± 0.22
580 K | 3.8 ± 0.29
590 K | 5.1 ± 0.4
600 K | 6.9 ± 0.54
709.1 K | 101.33 ± 10
